Test results published in article PMC10115881, “Disrupting the α-synuclein-ESCRT interaction with a peptide inhibitor mitigates neurodegeneration in preclinical models of Parkinson’s disease” (Nature Communications, 2023).

Assays:
A53T a-syn oligomers = assay: Split-YFP PCA/FACS screen of A53T a-syn oligomers; assay type: cell-based, human
Source text: We used a lentiviral library of 50,549 7-mer peptides enriched in PPI motifs[13] on a green fluorescent protein (GFP) scaffold (Fig. 1A). We infected cells in a pooled format and the amino acid sequence of each peptide served as its own barcode. By using a low multiplicity of infection followed by puromycin selection, each infected cell expressed one unique GFP-peptide. We screened for peptides that reduced a-syn-mediated cytotoxicity or a-syn oligomers in parallel (Fig. 1A). To cause cytotoxicity relevant to PD, we induced proteostatic stress in HEK293 cells by inhibiting the proteasome with MG132 and overexpressing human WT a-syn associated with idiopathic PD in one screen or the more toxic mutant A53T a-syn associated with familial PD in a second screen. This combination of a-syn overexpression and pharmacological proteasome inhibition led to death of most cells, with only those that expressed a protective peptide surviving. By extracting genomic DNA from the surviving cells and amplifying the peptide coding sequences, we identified the protective peptides (Fig. 1A). To detect a-syn oligomers, we used a protein fragment complementation assay (PCA) of a-syn oligomerization in HEK293 cells. In this assay, human A53T a-syn was fused to either the C- or N-terminal half of yellow fluorescent protein (YFP). No fluorescence is detectable while a-syn exists in monomers but, when a-syn oligomerizes, the two halves of YFP come in close enough proximity to form a functional, spontaneously fluorescent protein. […] Our screens yielded 10 hits (Table S1). The hit with the most reads (i.e., the most abundant) was the same peptide in all screens: IPIQLKA (named PDpep1) (Table S1). We validated the cytoprotective effects of PDpep1 in HEK293 cells overexpressing WT or A53T a-syn (Figs. 1B, S1A), as well as its ability to reduce WT or A53T a-syn oligomers in a luciferase-based PCA[18]–[20] compared to a scrambled control peptide (Figs. 1C, S1B).
HEK293T cells (ATCC, CRL-3216) were maintained in DMEM supplemented with 10% FBS and 1% pen/strep/glutamine, and the appropriate selection antibiotics when required. Lentiviruses were made in a 15 cm dish format by transfecting packaging cells (HEK293T) with a three-plasmid system (expression vector, psPAX2 and pMD2.G) and using Polyjet DNA transfection reagent (FroggaBio, SL100688.1). Viral transduction of HEK293T cells were performed with a multiplicity of infection (MOI) of 0.3. Infected cells were selected in puromycin-containing medium to eliminate uninfected cells and three aliquots of cells were collected for sampling of the initial (T0) cell population. Cells were treated with MG132 at concentrations of 0, 10, 25, or 50 µM. For the cell viability screen, surviving cells were collected and gDNA was extracted for identification of peptide inhibitors of cell toxicity. For the inhibition of a-syn aggregation screen, a protein fragment complementation assay (PCA) was used by transfecting cells with split YFP-a-syn constructs following stable expression of the peptides. Cells were sorted based on their YFP fluorescence intensities with a FACSVantage SE cell sorter (BD Bioscience) and gDNA was extracted for identification of peptides.
Cells were harvested by trypsin treatment and centrifuged at 500 × g for 5 min. The pellet was resuspended in ice-cold PBS and centrifuged again. The pellet was then resuspended at a concentration of 4 × 10^6 cells/ml in the sorting buffer, which is PBS containing 100 Kunitz DNase I/ml, 10 μg/ml propidium iodide (Sigma), and 2% FBS. The cells were then sent through a 40 μm filter to remove large clumps and loaded into either a FACScan Flow Cytometer (BD Bioscience) for cell analysis or a FACSVantage SE cell sorter (BD Bioscience) for cell sorting. The cells with positive propidium iodide staining (i.e., dead cells) were first eliminated from the analysis. […]

LAMP1 = LAMP1 levels in HEK293 cells; assay type: cell-based, human; settings: A53T a-syn overexpression
Experimental: Infected or transfected cells were scraped from six-well dishes and lysed with lysis buffer (50 mM Tris-HCl pH 7.4, 1% Nonidet P-40, 150 mM NaCl, 1 mM EDTA, 1× protease inhibitor mixture (Sigma)) for 30 min at 4 °C. The insoluble pellet was removed following a 10,000 rpm spin for 5 min at 4 °C. Lysates were analyzed by SDS-PAGE/immunoblot using 4–20% Mini-PROTEAN Tris-glycine gels (Bio-Rad), transferred to polyvinylidene fluoride (PVDF) membranes, and blocked in 5% milk containing PBS-Tween-20 (0.1%) for 1 h. PVDF membranes were then incubated with specified primary antibodies followed by incubation with horseradish peroxidase-conjugated secondary antibodies (anti-mouse HRP-linked, Cell Signaling, catalog #7076, 1:5000; anti-rabbit HRP-linked, Cell Signaling, catalog #7074, 1:5000) and detected using enhanced chemiluminescence (GE Healthcare). […]
After fixation, cells were permeabilized with 0.2% Triton-X-100 for 15 min, washed three times with PBS and then incubated with blocking solution (1% BSA, 22.52 mg/mL glycine, 0.1% Tween-20 in PBS or 0.4% saponin, 1% BSA, and 5% goat or donkey serum in PBS) for 1 h. […] Following another three washes with PBS, nuclei were counterstained with DAPI (ThermoFisher) and then coverslips were mounted on slides using Dako fluorescence mounting medium (Agilent) and sealed using clear nail varnish.

Substance: IPIQLKA [PDpep1, initial screen hit peptide IPIQLKA]
- Reads GFP High (A53T a-syn oligomers): 12
- Reads GFP Inter (A53T a-syn oligomers): 2853
- Reads GFP Neg (A53T a-syn oligomers): 15556
- Reads Ratio (A53T a-syn oligomers): 1,218.98

Substance: DEEIERQLKALG [PDpep1.3]
- Effect on LAMP1 levels, HEK293 (LAMP1): LAMP1 levels were restored
